Assays:
[1] = target: Ba/F3 EGFR L858R/T790M/C797S (LTC) (Homo sapiens, UniProt P00533, T790M/C797S/L858R, cells depend on it); assay: Cell growth inhibitory ability in Ba/F3 cells overexpressing EGFR L858R/T790M/C797S (MTS, CellTiter 96 AQueous); format: cell-based; details: 72 hours, MTS absorbance at 490 nm, read-out: Ba/F3 EGFR triple mutant L858R/T790M/C797S, IC50
Description: (§1) In order to confirm that the compound represented by formula 1 provided in one aspect of the present invention acts as an allosteric inhibitor against WT and mutant of EGFR, the cell growth inhibitory effect was evaluated in BaF3 cells overexpressing WT and mutant of EGFR.
(§2) More specifically, the cell growth inhibitory ability of the compound of the present invention to the Ba/F3 cell line overexpressing WT and mutant of EGFR was evaluated using CellTiter 96 AQueous Non-Radioactive Cell Proliferation Assay system of Promega, as follows. AQueous Non-Radioactive Cell Proliferation Assay is a method of confirming cell growth inhibitory ability by measuring the degree of color development by reducing MTS (3-(4,5-Dimethylthiazol-2-yl)-5-(3-carboxymethoxyphenyl)-2-(4-sulfophenyl)-2H-tetrazolium) to Formazan by a reductase secreted by mitochondria present in living cells in a cell culture state. The Ba/F3 EGFR WT and Ba/F3 EGFR del19/T790M/C797S (DTC), Ba/F3 EGFR L858R (L), Ba/F3 EGFR L858R/T790M (LT), and Ba/F3 EGFR L858R/T790M/C797S (LTC) mutation cell lines used in the present invention were purchased from the laboratory of Professor Byung-cheol Cho, Yonsei University. All cell lines were cultured in RPMI supplemented with 10% FBS, 1% penicillin-streptomycin and 1 μg/ml of puromycine in a 5% CO2 incubator at 37° C.
(§3) The cell survival inhibitory effect of the compound according to each EGFR mutation was analyzed by the following analysis method.
(§4) BaF3 cells were distributed in a 96-well cell culture plate at the density of 2000˜10000 cells/100 μL/well, and cultured for 24 hours. Thereafter, the concentration of the compound represented by formula 1 provided in one aspect of the present invention was prepared to double the final concentrations of 0.1 nM, 1 nM, 10 nM, 100 nM, 1000 nM and 10000 nM, and the compound was treated to the plate (100 μL/well). The plate was reacted in an incubator at 37° C. for 72 hours. Then, MTS was treated to the plate (20 μL/well) and the plate was incubated at 37° C. for 2 to 4 hours. Finally, after measuring the absorbance at 490 nm using a microplate reader, the relative value compared to 0 nM (% Control) was obtained to confirm the cell growth inhibitory ability of the compound. The measured values were analyzed using Prism program (version 8.0, Graphpad Software, Inc.), and the IC50 value (Inhibition concentration 50), an indicator of the cell growth inhibitory ability of the compound, was calculated.

[2] = target: Ba/F3 EGFR L858R/T790M (LT) (Homo sapiens, UniProt P00533, T790M/L858R, cells depend on it); assay: Cell growth inhibitory ability in Ba/F3 cells overexpressing EGFR L858R/T790M (MTS, CellTiter 96 AQueous); format: cell-based; details: 72 hours, MTS absorbance at 490 nm, read-out: Ba/F3 EGFR double mutant L858R/T790M, IC50
Description: as §1, §2, §3, §4

Compound | GI50 [1] | GI50 [2]
Cc1cc(C(=O)NC(c2cc3ccccc3[nH]2)c2cc(F)ccc2O)cc(-c2ccc(N3CCC(N)CC3)cc2)c1 (stereo not shown) [Example 32, 4′-(4-aminopiperidine-1-yl)-N-((5-fluoro-2-hydroxyphenyl)(1H-indole-2-yl)methyl)-5-methyl-[1,1′-biphenyl]-3-carboxamide] | < 30 nM | < 30 nM
Cc1cc(C(=O)N[C@@H](c2cc3ccccc3[nH]2)c2cc(F)ccc2O)cc(-c2ncc(N3CCN(C)CC3)cn2)c1 [Example 37, (R)—N-((5-fluoro-2-hydroxyphenyl)(1H-indole-2-yl)methyl)-3-methyl-5-(5-(4-methylpiperazine-1-yl)pyrimidine-2-yl)benzamide] | < 30 nM | 30 to 200 nM
Cc1cc(C(=O)N[C@@H](c2cc3ccccc3[nH]2)c2cc(F)ccc2O)cc(-c2ncc(N3CCC(N(C)C)CC3)cn2)c1 [Example 39, 3-[5-[4-(dimethylamino)-1-piperidyl]pyrimidine-2-yl]-N—[(R)-(5-fluoro-2-hydroxy-phenyl)-(1H-indole-2-yl)methyl]-5-methyl-benzamide] | < 30 nM | < 30 nM
Cc1cc(C(=O)N[C@@H](c2cc3ccccc3[nH]2)c2cc(F)ccc2O)cc(-c2ncc(N3CCCCC3)cn2)c1 [Example 40, N—[(R)-(5-fluoro-2-hydroxy-phenyl)-(1H-indole-2-yl)methyl]-3-methyl-5-[5-(1-piperidyl)pyrimidine-2-yl]benzamide] | 30 to 200 nM | < 30 nM
Cc1cc(C(=O)N[C@@H](c2cc3ccccc3[nH]2)c2cc(F)ccc2O)cc(-c2ncc(N3CCN(C4CCN(C)CC4)CC3)cn2)c1 [Example 41, N—[(R)-(5-fluoro-2-hydroxy-phenyl)-(1H-indole-2-yl)methyl]-3-methyl-5-[5-[4-(1-methyl-4-piperidyl)piperazine-1-yl]pyrimidine-2-yl]benzamide] | < 30 nM | < 30 nM
Cc1cc(C(=O)N[C@@H](c2cc3ccccc3[nH]2)c2cc(F)ccc2O)cc(-c2ccc(CN3CCC(N(C)C)CC3)cn2)c1 [Example 42] | 30 to 200 nM | < 30 nM
CCN(CC)C1CCN(c2cnc(-c3cc(C)cc(C(=O)N[C@@H](c4cc5ccccc5[nH]4)c4cc(F)ccc4O)c3)nc2)CC1 [Example 45, (R)-3-(5-(4-(diethylamino)piperidine-1-yl)pyrimidine-2-yl)-N-((5-fluoro-2-hydroxyphenyl)(1H-indole-2-yl)methyl)-5-methylbenzamide] | < 30 nM | < 30 nM
(R)-3-(6-((4-(dimethylamino)piperidine-1-yl)methyl)pyridine-3-yl)-N-((5-fluoro-2-hydroxyphenyl)(1H-indole-2-yl))methyl)-5-methylbenzamide [Example 43] | 30 to 200 nM | < 30 nM

Now from value to compound:

GI50 [1] | GI50 [2] | Compound
< 30 nM | < 30 nM | Cc1cc(C(=O)N[C@@H](c2cc3ccccc3[nH]2)c2cc(F)ccc2O)cc(-c2cc(C)c(N3CCC(N)CC3)cn2)c1 [Example 33, (R)-3-(5-(4-aminopiperidine-1-yl)-4-methylpyridine-2-yl)-N-((5-fluoro-2-hydroxyphenyl)(1H-indole-2-yl)methyl)-5-methylbenzamide]
30 to 200 nM | < 30 nM | Cc1cc(C(=O)N[C@@H](c2cc3ccccc3[nH]2)c2cc(F)ccc2O)cc(-c2cnc(N3CCC(N)CC3)nc2C)c1 [Example 34, (R)-3-(2-(4-aminopiperidine-1-yl)-4-methylpyrimidine-5-yl)-N-((5-fluoro-2-hydroxyphenyl)(1H-indole-2-yl)methyl)-5-methylbenzamide]
< 30 nM | > 200 nM | Cc1cc(C(=O)N[C@@H](c2cc3ccccc3[nH]2)c2cc(F)ccc2O)cc(-c2ncc(N3CCN(C(=O)OC(C)(C)C)CC3)cn2)c1 [Example 35, tert-butyl (R)-4-(2-(3-(((5-fluoro-2-hydroxyphenyl)(1H-indole-2-yl)methyl)carbamoyl)-5-methylphenyl)pyrimidine-5-yl)piperazine-1-carboxylate]
< 30 nM | < 30 nM | Cc1cc(C(=O)N[C@@H](c2cc3ccccc3[nH]2)c2cc(F)ccc2O)cc(-c2ncc(N3CCNCC3)cn2)c1 [Example 36, (R)—N-((5-fluoro-2-hydroxyphenyl)(1H-indole-2-yl)methyl)-3-methyl-5-(5-(piperazine-1-yl)pyrimidine-2-yl)benzamide]
> 200 nM | > 200 nM | CCCC1CCN(c2cnc(-c3cc(C)cc(C(=O)N[C@@H](c4cc5ccccc5[nH]4)c4cc(F)ccc4O)c3)nc2)CC1 [Example 38, N—[(R)-(5-fluoro-2-hydroxy-phenyl)-(1H-indole-2-yl)methyl]-3-methyl-5-[5-(4-propyl-1-piperidyl)pyrimidine-2-yl]benzamide]
< 30 nM | < 30 nM | Cc1cc(C(=O)N[C@@H](c2cc3ccccc3[nH]2)c2cc(F)ccc2O)cc(-c2ncc(N3CC[C@@H](N)C3)cn2)c1 [Example 44, 3-[5-[(3R)-3-aminopyrrolidine-1-yl]pyrimidine-2-yl]-N—[(R)-(5-fluoro-2-hydroxy-phenyl)-(1H-indole-2-yl)methyl]-5-methyl-benzamide]
